The target of this assay is PI3Kβ (Homo sapiens (Human), UniProt P42338). The experiment in a line: In vitro enzyme inhibition assay (Kinase Glo based enzyme activity assay). The assay is classed as biochemical. The procedure:
(a) In Vitro Enzyme Inhibition Assay
The inhibition of PI3Kβ, PI3Kα, PI3Kγ and PI3Kδ was evaluated in a Kinase Glo based enzyme activity assay using human recombinant enzymes. The assay measures depletion of ATP after incubation with enzyme, PIP2 and ATP plus compound. ATP at the end of the reaction is detected by addition of Kinase Glo reagent, in this the Ultra Glo™ luciferase (Promega) uses the ATP as a substrate to catalyze the mono-oxygenation of luciferin and the generation of light. A direct relationship exists between the luminescence measured with the Kinase-Glo Plus Reagent and the amount of ATP remaining in a completed kinase reaction and luminescence is inversely related to kinase activity. Twelve different compound concentrations were tested and raw data from the inhibition of PI3 Kb, PI3Kα, PI3Kγ and PI3Kδ was plotted versus inhibitor concentration.
Compounds in 100% DMSO were added to assay plates by acoustic dispensing. PI3Kβ was added in a Tris buffer (50 mM Tris pH7.4, 0.05% CHAPS, 2.1 mM DTT, and 10 mM MgCl2) and allowed to preincubate with compound for 20 minutes prior to addition of substrate solution containing PIP2 and ATP. The enzyme reaction was stopped after 80 minutes by the addition of Kinase Glo detection solution. Plates were left for 30 minutes at room temperature then read on a Pherastar Instrument (Luminescence ATP 384 program) setting gain on max well. The final concentration of DMSO, ATP and PIP2 in the assay were, 1%, 80 μM, and 80 μM respectively.
IC50 values were calculated using a log curve fitting to a non-linear regression package, fitting raw data to inhibitor concentration.
(In general: In Kinase-Glo more light means more ATP remaining.)

Setting [1] is: Test (a), human recombinant enzyme, read-out: PI3Kβ inhibition, IC50.

Consider 30 compounds from patent US8673906B2, “Chromenone derivatives” (AstraZeneca AB, priority 2010, dated 2014).

One may read the IC50 as the concentration that gives 50% inhibition.

Where two headings read alike, the source gives them in different places.

Sequence of PI3Kβ (P42338 whole entry): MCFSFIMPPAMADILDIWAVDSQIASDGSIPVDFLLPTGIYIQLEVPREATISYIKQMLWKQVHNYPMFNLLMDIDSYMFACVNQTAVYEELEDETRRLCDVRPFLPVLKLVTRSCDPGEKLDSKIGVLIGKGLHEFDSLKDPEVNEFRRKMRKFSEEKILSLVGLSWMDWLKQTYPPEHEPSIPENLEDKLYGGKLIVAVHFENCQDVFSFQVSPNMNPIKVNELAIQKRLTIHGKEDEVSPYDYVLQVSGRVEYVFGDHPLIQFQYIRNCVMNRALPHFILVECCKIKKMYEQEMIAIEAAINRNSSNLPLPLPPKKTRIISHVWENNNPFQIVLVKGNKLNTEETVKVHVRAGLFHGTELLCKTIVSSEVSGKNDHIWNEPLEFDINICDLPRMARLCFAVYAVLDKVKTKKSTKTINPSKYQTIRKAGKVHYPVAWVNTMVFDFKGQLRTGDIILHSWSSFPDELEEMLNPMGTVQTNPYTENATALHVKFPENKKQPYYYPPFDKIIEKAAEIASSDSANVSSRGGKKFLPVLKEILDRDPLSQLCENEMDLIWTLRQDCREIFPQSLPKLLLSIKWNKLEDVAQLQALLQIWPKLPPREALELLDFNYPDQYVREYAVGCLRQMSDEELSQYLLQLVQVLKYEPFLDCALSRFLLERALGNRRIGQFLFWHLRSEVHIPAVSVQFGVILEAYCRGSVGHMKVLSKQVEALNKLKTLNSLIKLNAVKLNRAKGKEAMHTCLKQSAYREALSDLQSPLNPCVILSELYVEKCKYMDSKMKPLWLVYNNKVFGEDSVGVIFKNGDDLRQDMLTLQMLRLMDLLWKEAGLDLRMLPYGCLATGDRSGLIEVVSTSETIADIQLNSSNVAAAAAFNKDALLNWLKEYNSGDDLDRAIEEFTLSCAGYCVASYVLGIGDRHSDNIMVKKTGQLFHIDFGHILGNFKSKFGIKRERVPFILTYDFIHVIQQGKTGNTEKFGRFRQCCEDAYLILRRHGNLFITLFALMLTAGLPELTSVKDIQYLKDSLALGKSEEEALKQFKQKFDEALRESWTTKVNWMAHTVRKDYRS
Sequence of PI3Kβ (P27986 whole entry partner): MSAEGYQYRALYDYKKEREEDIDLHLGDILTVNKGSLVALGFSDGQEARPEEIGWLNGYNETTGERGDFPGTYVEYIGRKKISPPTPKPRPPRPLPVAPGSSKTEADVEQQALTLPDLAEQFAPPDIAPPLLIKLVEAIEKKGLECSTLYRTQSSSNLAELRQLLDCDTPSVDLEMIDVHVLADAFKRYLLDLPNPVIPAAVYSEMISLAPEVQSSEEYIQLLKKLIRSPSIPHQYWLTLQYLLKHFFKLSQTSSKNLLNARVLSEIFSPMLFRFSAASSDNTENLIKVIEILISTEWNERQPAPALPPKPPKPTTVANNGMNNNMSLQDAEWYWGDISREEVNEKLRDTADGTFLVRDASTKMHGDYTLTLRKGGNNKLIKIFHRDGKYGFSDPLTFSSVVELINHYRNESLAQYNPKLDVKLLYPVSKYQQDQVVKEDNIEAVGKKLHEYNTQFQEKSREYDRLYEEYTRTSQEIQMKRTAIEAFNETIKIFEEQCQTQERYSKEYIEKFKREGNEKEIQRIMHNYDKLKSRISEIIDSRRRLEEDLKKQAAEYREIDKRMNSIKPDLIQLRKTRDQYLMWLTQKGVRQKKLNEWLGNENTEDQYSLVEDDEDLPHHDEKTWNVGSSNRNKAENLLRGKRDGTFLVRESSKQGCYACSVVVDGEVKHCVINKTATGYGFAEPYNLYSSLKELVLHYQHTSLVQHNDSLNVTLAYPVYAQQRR

Consider `CC(Nc1cc(F)cc(F)c1)c1cc(C(=O)N2CC[C@H](O)C2)cc2c(=O)cc(N3CCOCC3)oc12` (single isomer, unassigned) [Example 2.08], for which the half-inhibitory concentration (IC50) under setting [1] came to 7 nM.

As for `CC(Nc1ccc(F)c(F)c1)c1cc(C(=O)N(C)C)cc2c(=O)cc(N3CCOCC3)oc12` (single isomer, unassigned) [Example 3.03a, 8-(1-(3,4-difluorophenylamino)ethyl)-N,N-dimethyl-2-morpholino-4-oxo-4H-chromene-6-carboxamide], under setting [1], the half-maximal inhibitory concentration (IC50) came to 649 nM.

Turning to `CC(Nc1ccc(F)c(F)c1)c1cc(C(=O)N(C)C)cc2c(=O)cc(N3CCOCC3)oc12` (single isomer, unassigned) [Example 3.03b, 8-(1-(3,4-difluorophenylamino)ethyl)-N,N-dimethyl-2-morpholino-4-oxo-4H-chromene-6-carboxamide], the IC50 under setting [1] amounted to 3 nM.

For the compound `CC(Nc1cccc(Cl)c1F)c1cc(C(=O)N(C)C)cc2c(=O)cc(N3CCOCC3)oc12` (single isomer, unassigned) [Example 3.04a, 8-(1-(3-chloro-2-fluorophenylamino)ethyl)-N,N-dimethyl-2-morpholino-4-oxo-4H-chromene-6-carboxamide], under setting [1], the IC50 is 2250 nM.

Consider `CC(Nc1cccc(Cl)c1F)c1cc(C(=O)N(C)C)cc2c(=O)cc(N3CCOCC3)oc12` (single isomer, unassigned) [Example 3.04b, 8-(1-(3-chloro-2-fluorophenylamino)ethyl)-N,N-dimethyl-2-morpholino-4-oxo-4H-chromene-6-carboxamide], for which the half-inhibitory concentration (IC50) under setting [1] is 3 nM.

Take `CC(c1cc(C(=O)N2CCC(O)CC2)cc2c(=O)cc(N3CCOCC3)oc12)N(C)c1cc(F)cc(F)c1` (single isomer, unassigned) [Example 7.01a, 8-(1-((3,5-difluorophenyl)(methyl)amino)ethyl)-6-(4-hydroxypiperidine-1-carbonyl)-2-morpholino-4H-chromen-4-one]: the concentration for half-maximal inhibition (IC50) under setting [1] was found to be 8 nM.

`CC(c1cc(C(=O)N2CCC(O)CC2)cc2c(=O)cc(N3CCOCC3)oc12)N(C)c1cc(F)cc(F)c1` (single isomer, unassigned) [Example 7.01b, 8-(1-((3,5-difluorophenyl)(methyl)amino)ethyl)-6-(4-hydroxypiperidine-1-carbonyl)-2-morpholino-4H-chromen-4-one]: the IC50 under setting [1] was found to be 4320 nM.

Regarding `CC(Nc1cc(F)cc(F)c1)c1cc(C(=O)N(C)C)cc2c(=O)cc(N3CCO[C@H](C)C3)oc12` (single isomer, unassigned) [Example 9.01a], the IC50 under setting [1] worked out at 17900 nM.

Take `CC(Nc1cc(F)cc(F)c1)c1cc(C(=O)N(C)C)cc2c(=O)cc(N3CCO[C@H](C)C3)oc12` (single isomer, unassigned) [Example 9.01b]: the 50% inhibitory concentration (IC50) under setting [1] turned out to be 3 nM.

In the case of `CC(Nc1cc(F)cc(F)c1)c1cc(C(=O)N(C)C)cc2c(=O)cc(N3CCO[C@@H](C)C3)oc12` (single isomer, unassigned) [Example 9.02a], the 50% inhibitory concentration (IC50) under setting [1] is 22700 nM.

On to `CC(Nc1cc(F)cc(F)c1)c1cc(C(=O)N(C)C)cc2c(=O)cc(N3CCO[C@@H](C)C3)oc12` (single isomer, unassigned) [Example 9.02b], for which the IC50 under setting [1] was found to be 7 nM.

`CC(Nc1cc(F)cc(F)c1F)c1cc(C(=O)N(C)C)cc2c(=O)cc(N3CCOCC3)oc12` (single isomer, unassigned; (-)) [Example 3.13b, (−)-N,N-dimethyl-2-morpholino-4-oxo-8-(1-(2,3,5-trifluorophenylamino)ethyl)-4H-chromene-6-carboxamide]: the IC50 under setting [1] came to 4 nM.

In the case of `CC(Nc1cccc(F)c1)c1cc(C(=O)NCCN(C)C)cc2c(=O)cc(N3CCOCC3)oc12` (stereo not drawn) [Example 1.01, N-(2-(dimethylamino)ethyl)-8-(1-(3-fluorophenylamino)ethyl)-2-morpholino-4-oxo-4H-chromene-6-carboxamide], the IC50 under setting [1] was 1 nM.

As to `CC(Nc1ccccc1)c1cc(C(=O)NCCN(C)C)cc2c(=O)cc(N3CCOCC3)oc12` (stereo not drawn) [Example 1.02, N-(2-(dimethylamino)ethyl)-2-morpholino-4-oxo-8-(1-(phenylamino)ethyl)-4H-chromene-6-carboxamide], the half-inhibitory concentration (IC50) under setting [1] stood at 2 nM.

For `CC(Nc1cccc(Cl)c1F)c1cc(C(=O)NCCN(C)C)cc2c(=O)cc(N3CCOCC3)oc12` (stereo not drawn) [Example 2.00, 8-(1-(3-chloro-2-fluorophenylamino)ethyl)-N-(2-(dimethylamino)ethyl)-2-morpholino-4-oxo-4H-chromene-6-carboxamide], under setting [1], the half-inhibitory concentration (IC50) came out at 9 nM.

`CC(Nc1ccc(F)cc1)c1cc(C(=O)N(C)C)cc2c(=O)cc(N3CCOCC3)oc12` (stereo not drawn) [Example 2.01, 8-(1-(4-fluorophenylamino)ethyl)-N,N-dimethyl-2-morpholino-4-oxo-4H-chromene-6-carboxamide]: the IC50 under setting [1] is 7 nM.

With `CC(Nc1ccc(F)cc1)c1cc(C(=O)N(C)CCN(C)C)cc2c(=O)cc(N3CCOCC3)oc12` (stereo not drawn) [Example 2.02, N-(2-(dimethylamino)ethyl)-8-(1-(4-fluorophenylamino)ethyl)-N-methyl-2-morpholino-4-oxo-4H-chromene-6-carboxamide], the half-inhibitory concentration (IC50) under setting [1] is 7 nM.

With `CC(Nc1ccc(F)c(Cl)c1)c1cc(C(=O)N2CCC(O)CC2)cc2c(=O)cc(N3CCOCC3)oc12` (stereo not drawn) [Example 2.03, 8-(1-(3-chloro-4-fluorophenylamino)ethyl)-6-(4-hydroxypiperidine-1-carbonyl)-2-morpholino-4h-chromen-4-one], the IC50 under setting [1] stood at 6 nM.

On to `CC(Nc1ccc(F)c(Cl)c1)c1cc(C(=O)N(C)CCO)cc2c(=O)cc(N3CCOCC3)oc12` (stereo not drawn) [Example 2.04, 8-(1-(3-chloro-4-fluorophenylamino)ethyl)-N-(2-hydroxyethyl)-N-methyl-2-morpholino-4-oxo-4H-chromene-6-carboxamide], for which, under setting [1], the IC50 came to 4 nM.

On to `CC(Nc1cccc(Cl)c1F)c1cc(C(=O)N2CCC(O)CC2)cc2c(=O)cc(N3CCOCC3)oc12` (stereo not drawn) [Example 2.06, 8-(1-(3-chloro-2-fluorophenylamino)ethyl)-6-(4-hydroxypiperidine-1-carbonyl)-2-morpholino-4H-chromen-4-one], for which the IC50 under setting [1] was determined as 6 nM.

For `CC(Nc1cc(F)cc(F)c1)c1cc(C(=O)N2CCOCC2)cc2c(=O)cc(N3CCOCC3)oc12` (stereo not drawn) [Example 2.07, 8-(1-(3,5-difluorophenylamino)ethyl)-6-(morpholine-4-carbonyl)-2-morpholino-4H-chromen-4-one], under setting [1], the half-maximal inhibitory concentration (IC50) was determined as 5 nM.

With `CC(c1cc(C(=O)NCCN(C)C)cc2c(=O)cc(N3CCOCC3)oc12)N(C)c1ccc(F)cc1` (stereo not drawn) [Example 3.00, N-(2-(dimethylamino)ethyl)-8-(1-((4-fluorophenyl)(methyl)amino)ethyl)-2-morpholino-4-oxo-4H-chromene-6-carboxamide], the IC50 under setting [1] came out at 7 nM.

Take `CC(c1cc(C(=O)N(C)CCN(C)C)cc2c(=O)cc(N3CCOCC3)oc12)N(C)c1ccc(F)cc1` (stereo not drawn) [Example 3.02, N-(2-(dimethylamino)ethyl)-8-(1-((4-fluorophenyl)(methyl)amino)ethyl)-N-methyl-2-morpholino-4-oxo-4H-chromene-6-carboxamide]: under setting [1], the half-inhibitory concentration (IC50) stood at 11 nM.

In the case of `CC(Nc1ccc(F)c(Cl)c1)c1cc(C(=O)N(C)C)cc2c(=O)cc(N3CCOCC3)oc12` (stereo not drawn) [Example 3.05, 8-(1-(3-chloro-4-fluorophenylamino)ethyl)-N,N-dimethyl-2-morpholino-4-oxo-4H-chromene-6-carboxamide], the concentration for half-maximal inhibition (IC50) under setting [1] came to 6 nM.

Turning to `CC(c1cc(C(=O)N(C)C)cc2c(=O)cc(N3CCOCC3)oc12)N(C)c1ccc(F)c(Cl)c1` (stereo not drawn) [Example 3.08, 8-(1-((3-chloro-4-fluorophenyl)(methyl)amino)ethyl)-N,N-dimethyl-2-morpholino-4-oxo-4H-chromene-6-carboxamide], under setting [1], the IC50 was 11 nM.

`CC(Nc1cccc(Cl)c1)c1cc(C(=O)N(C)C)cc2c(=O)cc(N3CCOCC3)oc12` (stereo not drawn) [Example 3.09, 8-(1-(3-chlorophenylamino)ethyl)-N,N-dimethyl-2-morpholino-4-oxo-4H-chromene-6-carboxamide]: the half-inhibitory concentration (IC50) under setting [1] was found to be 4 nM.

On to `CC(Nc1cccc(F)c1F)c1cc(C(=O)N(C)C)cc2c(=O)cc(N3CCOCC3)oc12` (stereo not drawn) [Example 3.10, 8-(1-(2,3-difluorophenylamino)ethyl)-N,N-dimethyl-2-morpholino-4-oxo-4H-chromene-6-carboxamide], for which the IC50 under setting [1] is 4 nM.

Take `CC(Nc1cccc(F)c1)c1cc(C(=O)N(C)C)cc2c(=O)cc(N3CCOCC3)oc12` (stereo not drawn) [Example 3.12, 8-(1-(3-fluorophenylamino)ethyl)-N,N-dimethyl-2-morpholino-4-oxo-4H-chromene-6-carboxamide]: the IC50 (mean IC50 value calculated from a larger number of replicates, read-out: PI3Kβ inhibition, IC50 (value in brackets)) is 5 nM.

With `CC(Nc1cc(F)cc(F)c1F)c1cc(C(=O)N(C)C)cc2c(=O)cc(N3CCOCC3)oc12` (stereo not drawn) [Example 3.13, N,N-dimethyl-2-morpholino-4-oxo-8-(1-(2,3,5-trifluorophenylamino)ethyl)-4H-chromene-6-carboxamide], the IC50 under setting [1] stood at 6 nM.

As for `CC(Nc1cc(F)ccc1F)c1cc(C(=O)N(C)C)cc2c(=O)cc(N3CCOCC3)oc12` (stereo not drawn) [Example 3.15, 8-(1-(2,5-difluorophenylamino)ethyl)-N,N-dimethyl-2-morpholino-4-oxo-4H-chromene-6-carboxamide], the 50% inhibitory concentration (IC50) under setting [1] amounted to 10 nM.
